# Experimental data taken from patent US9388142B2, “Quinazolinone derivatives as PARP inhibitors” (MERCK PATENT GMBH, priority 2012, dated 2016).
# Assays:
# [1] = target: GST-tagged Tankyrase-2 (873-1166 aa) (Homo sapiens, UniProt Q9H2K2); test: biochemical
# Text: (§1) aq (aqueous), h (hour), g (gram), L (liter), mg (milligram), MHz (Megahertz), min. (minute), mm (millimeter), mmol (millimole), mM (millimolar), m.p. (melting point), eq (equivalent), mL (milliliter), L (microliter), ACN (acetonitrile), AcOH (acetic acid), CDCl3 (deuterated chloroform), CD3OD (deuterated methanol), CH3CN (acetonitrile), c-hex (cyclohexane), DCC (dicyclohexyl carbodiimide), DCM (dichloromethane), DIC (diisopropyl carbodiimide), DIEA (diisopropylethyl-amine), DMF (dimethylformamide), DMSO (dimethylsulfoxide), DMSO-d6 (deuterated dimethylsulfoxide), EDC (1-(3-dimethyl-amino-propyl)-3-ethylcarbodiimide), ESI (Electro-spray ionization), EtOAc (ethyl acetate), Et2O (diethyl ether), EtOH (ethanol), HATU (dimethylamino-([1,2,3]triazolo[4,5-b]pyridin-3-yloxy)-methylene]-dimethylammonium hexafluorophosphate), HPLC (High Performance Liquid Chromatography), i-PrOH (2-propanol), K2CO3 (potassium carbonate), LC (Liquid Chromatography), MeOH (methanol), MgSO4 (magnesium sulfate), MS (mass spectrometry), MTBE (Methyl tert-butyl ether), NaHCO3 (sodium bicarbonate), NaBH4 (sodium borohydride), NMM (N-methyl morpholine), NMR (Nuclear Magnetic Resonance), PyBOP (benzotriazole-1-yl-oxy-trispyrrolidino-phosphonium hexafluorophosphate), RT (room temperature), Rt (retention time), SPE (solid phase extraction), TBTU (2-(1-H-benzotriazole-1-yl)-1,1,3,3-tetramethyluromium tetrafluoro borate), TEA (triethylamine), TFA (trifluoroacetic acid), THF (tetrahydrofuran), TLC (Thin Layer Chromatography), UV (Ultraviolet). Description of the In Vitro Assays Abbreviations: GST=Glutathione-S-transferase FRET=Fluorescence resonance energy transfer HTRF®=(homogenous time resolved fluorescence) HEPES=4-(2-hydroxyethyl)-1-piperazine ethanesulfonic acid buffer DTT=Dithiothreitol BSA=bovine serum albumin CHAPS=detergent; CHAPS=3[(3-cholamidopropyl)dimethylammonio]-1-propanesulfonate Streptavidin-XLent® is a high grade streptavidin-XL665 conjugate for which the coupling conditions have been optimized to yield a conjugate with enhanced performances for some assays, particularly those requiring high sensitivity.
# (§2) The autoparsylation assay is run in two steps: the enzymatic reaction in which GST-tagged Tankyrase-1, resp Tankyrase-2 transferred biotinylated ADP-ribose to itself from biotinylated NAD as co-substrate and the detection reaction where a time resolved FRET between cryptate labelled anti-GST bound to the GST tag of the enzyme and Xlent® labelled-streptavidin bound the biotin-parsylation residue is analysed. The autoparsylation activity was detectable directly via the increase in HTRF signal.
# (§3) The autoparsylation assay is performed as 384-well HTRF® (Cisbio, Codolet, France) assay format in Greiner low volume nb 384-well microtiter plates and is used for high throughput screen. […] The reaction is stopped by the addition of 1 μl 50 mM EDTA solution. […] The ratio of the emission signals is determined. The full value used is the inhibitor-free reaction. […] The inhibitory values (IC50) are determined using either the program Symyx Assay Explorer® or Condosseo® from GeneData.
# [2] = target: T1, GST-tagged Tankyrase-1 (1023-1327 aa) (Homo sapiens, UniProt O95271); test: biochemical; settings: read-out: IC50 tankyrase 1 (enzyme assay)
# T1 construct: GST-tagged Tankyrase-1 (1023-1327 aa)
# Text: as §1, §2, §3
# T1 sequence (O95271 1023-1327): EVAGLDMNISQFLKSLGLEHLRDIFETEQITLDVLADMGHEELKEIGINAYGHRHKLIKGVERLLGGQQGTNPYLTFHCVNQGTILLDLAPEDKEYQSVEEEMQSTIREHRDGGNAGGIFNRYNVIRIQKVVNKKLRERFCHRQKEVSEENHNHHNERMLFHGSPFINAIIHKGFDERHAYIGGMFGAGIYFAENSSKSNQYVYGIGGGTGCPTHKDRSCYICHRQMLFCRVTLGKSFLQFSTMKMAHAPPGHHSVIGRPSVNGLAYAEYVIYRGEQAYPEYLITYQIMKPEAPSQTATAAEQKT
# Chain of GST-tagged Tankyrase-2 (873-1166 aa) (Q9H2K2 873-1166): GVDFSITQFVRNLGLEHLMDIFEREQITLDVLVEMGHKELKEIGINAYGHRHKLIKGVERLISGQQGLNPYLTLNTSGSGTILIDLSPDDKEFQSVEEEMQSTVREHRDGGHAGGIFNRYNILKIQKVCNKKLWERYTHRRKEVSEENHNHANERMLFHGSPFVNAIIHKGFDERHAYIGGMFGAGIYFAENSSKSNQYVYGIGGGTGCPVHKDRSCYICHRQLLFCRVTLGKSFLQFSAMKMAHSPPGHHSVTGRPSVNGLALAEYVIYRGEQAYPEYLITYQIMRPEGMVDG
SMILES,IC50 [1],IC50 [2]
"CC(C)(O)c1ccc(-c2nc3c(F)cc(F)c(F)c3c(=O)[nH]2)cc1 [Compound A26, 5,6,8-trifluoro-2-[4-(1-hydroxy-1-methyl-ethyl)-phenyl]-3H-quinazolin-4-one]",300 to 3000 nM,< 300 nM
"Cc1cc(F)cc2c(=O)[nH]c(-c3ccc(N4CCC(CO)CC4)cc3)nc12 [Compound A31, 6-fluoro-2-[4-(4-hydroxymethyl-piperidin-1-yl)-phenyl]-8-methyl-3H-quinazolin-4-one]",300 to 3000 nM,300 to 3000 nM
"Cc1cc(F)cc2c(=O)[nH]c(-c3ccc(N4CCC(O)CC4)cc3)nc12 [Compound A29, 6-fluoro-2-[4-(4-hydroxy-piperidin-1-yl)-phenyl]-8-methyl-3H-quinazolin-4-one]",300 to 3000 nM,300 to 3000 nM
"O=c1[nH]c(-c2ccc(C3(O)CCCC3)cc2)nc2ccc(F)cc12 [Compound A16, 6-fluoro-2-[4-(1-hydroxycyclopentyl)phenyl]-3H-quinazolin-4-one]",300 to 3000 nM,< 300 nM
"CCC(O)(CC)c1ccc(-c2nc3ccc(F)cc3c(=O)[nH]2)cc1 [Compound A14, 2-[4-(1-ethyl-1-hydroxy-propyl)phenyl]-6-fluoro-3H-quinazolin-4-one]",300 to 3000 nM,< 300 nM
